# Key:
# [1] = molecular target: T1, integrin linked kinase (ILK) (Homo sapiens, UniProt Q13418); test: coimmunoprecipitation with ILK; type: binding
# T1 construct: expressed in transfected cells; host or cells: Cos and 10T1/2 cells
# T1 sequence (Q13418 1-452): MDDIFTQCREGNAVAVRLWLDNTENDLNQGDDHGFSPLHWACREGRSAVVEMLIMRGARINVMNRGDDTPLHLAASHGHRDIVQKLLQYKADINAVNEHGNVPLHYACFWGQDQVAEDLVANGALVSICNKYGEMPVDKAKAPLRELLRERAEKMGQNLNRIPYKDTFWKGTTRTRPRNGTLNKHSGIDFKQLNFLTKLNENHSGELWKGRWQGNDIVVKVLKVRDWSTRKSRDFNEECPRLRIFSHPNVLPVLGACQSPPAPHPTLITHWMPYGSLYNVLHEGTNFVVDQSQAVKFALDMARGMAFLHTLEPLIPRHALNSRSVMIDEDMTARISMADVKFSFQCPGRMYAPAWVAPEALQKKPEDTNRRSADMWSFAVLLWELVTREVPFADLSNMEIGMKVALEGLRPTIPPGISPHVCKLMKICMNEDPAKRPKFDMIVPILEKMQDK
# Text: To investigate the potential mechanisms through which thymosin β4 might be influencing cell migration and survival events, thymosin β4 interacting proteins were searched. The amino-terminus of […] was fused with affi-gel beads resulting in exposure of the carboxy-terminus that allowed identification of previously unknown interacting proteins but prohibited association with actin. An E9.5-12.5 mouse heart T7 phage cDNA library was synthesized and screened by phage display and thymosin β4-interacting clones were enriched and confirmed by ELISA. PINCH, a LIM domain protein, was most consistently isolated in this screen and interacted with thymosin β4 in the absence of actin (ELISA). PINCH and integrin linked kinase (ILK) interact directly with one another and indirectly with the actin cytoskeleton as part of a larger complex involved in cell-extracellular matrix interactions known as the focal adhesion complex. PINCH and ILK are required for cell motility and for cell survival, in part by promoting phosphorylation of the serine-threonine kinase Akt/protein kinase B, a central kinase in survival and growth signaling pathways. […] The PINCH interaction with thymosin β4 mapped to the fourth and fifth LIM domains of PINCH while the amino terminal ankryin domain of ILK was sufficient for thymosin β4 interaction. […]
# embryonic heart explants = type: cell-based
# Text: To test the effects of secreted thymosin β4 on cardiac cell migration, an embryonic heart explant system designed to assay cell migration and transformation events on a three-dimensional collagen gel was utilized. In this assay, explants of adjacent embryonic myocardium and endocardium from valve-forming regions were placed on a collagen gel with the endocardium adjacent to the collagen.
# Outflow tract was dissected from E11.5 wild type mouse embryos and placed on collagen matrices as previously described. After 10 hours of attachment explants were incubated in 30 ng/300 μl thymosin β4 in PBS, PBS alone or thymosin β4 and 100 nM wortmanin. Cultures were carried out for 3-9 days at 37° C. 5% CO2 and fixed in 4% paraformaldehyde in PBS for 10 min at RT. Cells were counted for quantification of migration and distance using at least three separate explants under each condition for endothelial migration and eight separate explants for myocardial migration.
# Paraformaldehyde-fixed explants were permeabilized for 10 min at RT with Permeabilize solution (10 mM PIPES pH6.8; 50 mMNaCl; 0.5% Triton X-100; 300 mM Sucrose; 3 mM MgCl2) and rinsed with PBS 2×5 min at RT. After a series of blocking and rinsing steps, detection antibodies were used and explants rinsed and incubated with Equilibration buffer (Anti-Fade kit) 10 min at room temperature. Explants were scooped to a glass microscope slide, covered, and examined by fluorescein microscopy. TUNEL assay was performed using ApopTag Plus Fluorescein In Situ Apoptosis detection kit (Intergen Company # S7111) as recommended.
# [2] = tested on: cardiac endothelial cells; test: collagen gel assay, transformation of cardiac endothelial cells to mesenchymal cells; type: cell-based; details: Tβ4 at physiological concentrations
# Procedure: Synthetic Tβ4 and an antibody to Tβ4 was provided by RegeneRx Biopharmaceuticals, Inc. (3 Bethesda Metro Center, Suite 700, Bethesda, Md. 20814) and were tested in a collagen gel assay to determine their effects on the Transformation of cardiac endothelial cells to mesenchymal cells. It is well established that development of heart valves and other cardiac tissue are formed by epithelial-mesenchymal transformation and that defects in this process can cause serious cardiovascular malformation and injury during development and throughout life. […] Transformation of atrioventricular endocardium into invasive mesenchyme is an aspect of the formation and maintenance of normal cardiac tissue and in the formation of heart valves.
# Synthetic Tβ4 and an antibody to Tβ4 was provided by RegeneRx Biopharmaceuticals, Inc. (3 Bethesda Metro Center, Suite 700, Bethesda, Md. 20814) and were tested in a collagen gel assay to determine their effects on the Transformation of cardiac endothelial cells to mesenchymal cells. It is well established that development of heart valves and other cardiac tissue are formed by epithelial-mesenchymal transformation and that defects in this process can cause serious cardiovascular malformation and injury during development and throughout life. […]
# ILK and Akt = test: western blot of heart lysates after coronary ligation; type: in vivo, mice
# Procedure: Because thymosin β4 upregulates ILK activity and Akt phosphorylation in cultured cells, the effects on these kinases in vivo were tested. […] Total Akt protein was not increased.
# Myocardial infarction was produced in fifty-eight male C57BL/6J mice at 16 weeks of age (25-30 g) by ligation of the left anterior descending coronary artery as previously described. Twenty-nine of the ligated mice received thymosin β4 treatment immediately following ligation and the remaining twenty-nine received PBS injections. Treatment was given intracardiac with thymosin β4 (200 ng in 10 ul collagen) or with 10 ul of collagen; intraperitoneally with thymosin β4 (150 μg in 300 μl PBS) or with […]; or by both intracardiac and intraperitoneal injections. Intraperitoneal injections were given every three days until mice were sacrificed. Doses were based on previous studies of thymosin β4 biodistribution. Hearts were removed, weighed and fixed for histologic sectioning. Additional mice were operated on in a similar fashion for studies 0.5, 1, 3, 6 and 11 days after ligation.
substance,measurement,setting,value
thymosin β4,strength of interaction of ILK with thymosin β4,[1]; common complex immunoprecipitation,weaker than with PINCH
same,co-precipitation with ILK,[1]; plasmids transfected in cultured cells,co-precipitated
same,cell death based on TUNEL assay compared to control cells,embryonic heart explants,No significant difference
same,number of migrating endothelial cells,"embryonic heart explants; E11.5 explants, compared to PBS, p<0.01",increased number of migrating endothelial cells
same,proliferative rate based on phosho-histone H3 immunostaining compared to control cells,embryonic heart explants; migrated cells of explants,No significant difference
same,migration of myocardial cells away from the explant,embryonic heart explants; thymosin β4 added to primary explants on collagen gel,"a large number of spontaneously beating, cardiac muscle actin-positive cells had migrated away from the explant"
same,transformation of endocardial cells to mesenchymal cells,[2],markedly enhances
same,total Akt protein,ILK and Akt,not increased
same,level of ILK protein in heart lysates,ILK and Akt; compared with PBS treated mice,increased
same,amount of phosphorylated Akt-5473,ILK and Akt; phospho-specific antibodies,elevation
